The values that follow come from patent US20230159527A1, “COMPOUNDS AS BCL-2 INHIBITORS” (Fochon Pharmaceuticals, Ltd., priority 2020, published 2023).

Read-outs that look alike come from different tables or passages of the source.

In the experiment the test system is Toledo cells. The experiment can be described thus: Cell proliferation assay, Toledo cells (MTS, 72 h). Format: cell-based. As to conditions: Homo sapiens. The protocol:
MTS testing kit was purchased from Promega (Madison, Wis., USA). The RPMI-1640, Fetal bovine serum and Penicillin-Streptomycin were purchased from BI (Biological Industries, Beit Haemek, Israel). Dimethyl sulfoxide (DMSO) was purchased from Sigma (St. Louis, Mo., USA). Toledo (ATCC catalog #: CRL-2631) cells were cultured in RPMI-1640 supplemented with Penicillin-Streptomycin and 10% FBS.
To investigate whether a compound is able to inhibit the activity of BCL-2 in cells, a mechanism-based assay using Toledo lines was developed. In this assay, the inhibition of BCL-2 was reflected by the inhibition of cell proliferation of Toledo cells. Cells were plated into 96-well plates at the optimized cell density of 30000 cells/well. Plates were incubated at 37° C., with 5% CO2 for 4h. Compounds were serially diluted and added to the plates with the final concentrations of 10000, 3333.3, 1111.1, 370.4, 123.5, 41.2, 13.7, 4.6 and 1.5 nM. Plates were incubated at 37° C., with 5% CO2 for 72 h. 20 μl MTS was added into each well and the plates were incubated at 37° C., with 5% CO2 for exactly 2 h. The absorbance was measured by a microplate reader at 490 nm. IC50 was calculated using GraphPad Prism 5.0 software.

The mark [1] stands for this setting: Toledo cells, MTS, read-out: Toledo IC50.

Broadly, the IC50 is the concentration needed to halve the response being measured. `CC(C)c1ccccc1[C@@H]1COCCN1C1CC2(CCN(c3ccc(C(=O)NS(=O)(=O)c4cc5c(c([N+](=O)[O-])c4)N[C@@H]([C@H]4CC[C@](C)(O)CC4)CO5)c(Oc4cnc5[nH]cc(Br)c5c4)c3)CC2)C1` (single isomer, unassigned) [Example D-3, 2-((3-bromo-1H-pyrrolo[2,3-b]pyridin-5-yl)oxy)-N-((S)-3-((1r,4S)-4-hydroxy-4-methylcyclohexyl)-5-nitro-3,4-dihydro-2H-benzo [b][1,4]oxazin-7-yl)sulfonyl)-4-(2-((R or S)-3-(2-isopropylphenyl)morpholino)-7-azaspiro[3.5]nonan-7-yl) benzamide]: the IC50 (Toledo, read-out: Toledo IC50 (nM)) amounted to 1 nM.

Turning to `CC(C)c1ccccc1[C@@H]1CCC[C@@H]1N1CC2(CCN(c3ccc(C(=O)NS(=O)(=O)c4cc5c(c([N+](=O)[O-])c4)N[C@@H]([C@H]4CC[C@](C)(O)CC4)CO5)c(Oc4cnc5[nH]cc(F)c5c4)c3)CC2)C1=O` (single isomer, unassigned) [Example D-248, 2-((3-fluoro-1H-pyrrolo[2,3-b]pyridin-5-yl)oxy)-N-(((S)-3-((1r,4S)-4-hydroxy-4-methylcyclohexyl)-5-nitro-3,4-dihydro-2H-benzo[b] [1,4]oxazin-7-yl)sulfonyl)-4-(2-((1S,2S or 1R,2R)-2-(2-isopropylphenyl)cyclopentyl)-1-oxo-2,7-diazaspiro [3.5]nonan-7-yl)benzamide], under setting [1], the 50% inhibitory concentration (IC50) was determined as 1 nM.

`CC(C)c1ccccc1[C@@H]1CCCN1C1CC2(CCN(c3ccc(C(=O)NS(=O)(=O)c4cc5c(c([N+](=O)[O-])c4)N[C@@H]([C@H]4CC[C@](C)(O)CC4)CO5)c(Oc4cc5cc[nH]c5nc4OC4CC4)c3)CC2)C1` (single isomer, unassigned) [Example D-67, 2-((6-cyclopropoxy-1H-pyrrolo[2,3-b]pyridin-5-yl)oxy)-N-(((S)-3-((1r,4S)-4-hydroxy-4-methylcyclohexyl)-5-nitro-3,4-dihydro-2H-benzo [b][1,4]oxazin-7-yl)sulfonyl)-4-(2-((R or S)-2-(2-isopropylphenyl)pyrrolidin-1-yl)-7-azaspiro[3.5]nonan-7-yl)benzamide]: under setting [1], the IC50 came to 1 nM.

For the molecule `CC(C)c1ccccc1[C@@H]1CCCN1C1CC2(CCN(c3ccc(C(=O)NS(=O)(=O)c4cc5c(c([N+](=O)[O-])c4)N[C@@H]([C@H]4CC[C@](C)(O)CC4)CO5)c(Oc4cc5cc[nH]c5nc4OC[C@@H]4CCCN4)c3)CC2)C1` (single isomer, unassigned) [Example D-218, N-(((S)-3-((1r,4S)-4-hydroxy-4-methylcyclohexyl)-5-nitro-3,4-dihydro-2H-benzo[b][1,4]oxazin-7-yl)sulfonyl)-4-(2-((R or S)-2-(2-isopropylphenyl)pyrrolidin-1-yl)-7-azaspiro[3.5]nonan-7-yl)-2-((6-(((S)-pyrrolidin-2-yl)methoxy)-1H-pyrrolo[2,3-b]pyridin-5-yl)oxy)benzamide], under setting [1], the IC50 was determined as 1 nM.

As to `CO[C@H]1CC[C@@H]([C@@H]2COc3cc(S(=O)(=O)NC(=O)c4ccc(N5CCC6(CC5)CC(N5CCC[C@H]5c5ccccc5C(C)C)C6)cc4Oc4cnc5[nH]cc(F)c5c4)cc([N+](=O)[O-])c3N2)CC1` (single isomer, unassigned) [Example D-46, 2-((3-fluoro-1H-pyrrolo[2,3-b]pyridin-5-yl)oxy)-4-(2-((R or S)-2-(2-isopropylphenyl)pyrrolidin-1-yl)-7-azaspiro[3.5]nonan-7-yl)-N-(((R)-3-((1s,4S)-4-methoxycyclohexyl)-5-nitro-3,4-dihydro-2H-benzo[b][1,4]oxazin-7-yl)sulfonyl)benzamide], under setting [1], the IC50 was found to be 1 nM.

Regarding `CC(C)c1ccccc1[C@@H]1CCCN1C1CC2(CCN(c3ccc(C(=O)NS(=O)(=O)c4cc5c(c([N+](=O)[O-])c4)N[C@@H]([C@H]4CC[C@](C)(O)CC4)CO5)c(Oc4cc5cc[nH]c5nc4O[C@H]4CCOC4)c3)CC2)C1` (single isomer, unassigned) [Example D-74, N-(((S)-3-((1r,4S)-4-hydroxy-4-methylcyclohexyl)-5-nitro-3,4-dihydro-2H-benzo[b][1,4]oxazin-7-yl)sulfonyl)-4-(2-((R or S)-2-(2-isopropylphenyl)pyrrolidin-1-yl)-7-azaspiro[3.5]nonan-7-yl)-2-((6-(((S)-tetrahydrofuran-3-yl)oxy)-1H-pyrrolo[2,3-b]pyridin-5-yl)oxy)benzamide], the IC50 under setting [1] amounted to 1 nM.

Turning to `CC(C)c1ccccc1[C@@H]1CC[C@H](CO)N1C1CC2(CCN(c3ccc(C(=O)NS(=O)(=O)c4cc5c(c([N+](=O)[O-])c4)N[C@@H]([C@H]4CC[C@](C)(O)CC4)CO5)c(Oc4cnc5[nH]cc(F)c5c4)c3)CC2)C1` [Example D-254, 2-((3-fluoro-1H-pyrrolo[2,3-b]pyridin-5-yl)oxy)-N-(((S)-3-((1r,4S)-4-hydroxy-4-methylcyclohexyl)-5-nitro-3,4-dihydro-2H-benzo[b] [1,4]oxazin-7-yl)sulfonyl)-4-(2-((2R,5S)-2-(hydroxymethyl)-5-(2-isopropylphenyl)pyrrolidin-1-yl)-7-azaspiro[3.5]nonan-7-yl)benzamide], the half-inhibitory concentration (IC50) under setting [1] came to 1 nM.

In the case of `CC(C)c1ccccc1[C@@H]1CCCN1C1CC2(CCN(c3ccc(C(=O)NS(=O)(=O)c4cc5c(c([N+](=O)[O-])c4)N[C@H]([C@H]4CC[C@H](O)CC4)CO5)c(Oc4cnc5[nH]cc(F)c5c4)c3)CC2)C1` (single isomer, unassigned) [Example D-42, 2-((3-fluoro-1H-pyrrolo[2,3-b]pyridin-5-yl)oxy)-N-(((R)-3-((1r,4R)-4-hydroxycyclohexyl)-5-nitro-3,4-dihydro-2H-benzo[b][1,4]oxazin-7-yl)sulfonyl)-4-(2-((R or S)-2-(2-isopropylphenyl)pyrrolidin-1-yl)-7-azaspiro[3.5]nonan-7-yl)benzamide], under setting [1], the IC50 came out at 1 nM.

In the case of `CC(C)c1ccccc1[C@@H]1CCCN1C1CC2(CCN(c3ccc(C(=O)NS(=O)(=O)c4cc5c(c([N+](=O)[O-])c4)N[C@@H]([C@H]4CC[C@](C)(O)CC4)CO5)c(Oc4cc5cc[nH]c5nc4N4CCOCC4)c3)CC2)C1` (single isomer, unassigned) [Example D-57, N-(((S)-3-((1r,4S)-4-hydroxy-4-methylcyclohexyl)-5-nitro-3,4-dihydro-2H-benzo[b][1,4]oxazin-7-yl)sulfonyl)-4-(2-((R or S)-2-(2-isopropylphenyl)pyrrolidin-1-yl)-7-azaspiro[3.5]nonan-7-yl)-2-((6-morpholino-1H-pyrrolo [2,3-b]pyridin-5-yl)oxy)benzamide], under setting [1], the half-maximal inhibitory concentration (IC50) was 1 nM.

`CC(C)c1ccccc1[C@@H]1CSCCN1C1CC2(CCN(c3ccc(C(=O)NS(=O)(=O)c4cc5c(c([N+](=O)[O-])c4)N[C@@H]([C@H]4CC[C@](C)(O)CC4)CO5)c(Oc4cnc5[nH]cc(F)c5c4)c3)CC2)C1` (single isomer, unassigned) [Example D-78, 2-((3-fluoro-1H-pyrrolo[2,3-b]pyridin-5-yl)oxy)-N-(((S)-3-((1r,4S)-4-hydroxy-4-methylcyclohexyl)-5-nitro-3,4-dihydro-2H-benzo[b] [1,4]oxazin-7-yl)sulfonyl)-4-(2-((R or S)-3-(2-isopropylphenyl)thiomorpholino)-7-azaspiro[3.5]nonan-7-yl)benzamide]: the IC50 under setting [1] stood at 1 nM.
